Data published in patent EP0363230A2, “Use of acetogenins in therapy as antiparasitic substances” (LA[…] Société anonyme dite:, priority 1988, dated 1990).

Columns and labels:
cellules KB [1] = assay: Cytotoxic effect on KB cells (dose lethal for 100 % of cells); type: cell-based, humain; details: 3 days at 37°C, dose lethal for 100 % of cells (complete disappearance of the cell layer)
From the text: (§1) La toxicité a été évaluée par la mesure de la cytotoxicité et de la cytostase vis-à-vis de cellules KB selon une technique usuelle. L'activité antiparasitaire a été déterminée in vitro sur Leishmania donovani, promastigote selon un protocole opératoire décrit ci-après.
(§2) On fait appel à des cellules épithéliales KB provenant d'un carcinome oral épidermoïde humain obtenues selon H. EAGLE "Propagation in a fluid medium of a human epidermoid carcinoma strain KB (21811)", Proc. Soc. Exp. Biol. and Med., 89, pages 362-364, (1955) et commercialisées par la Société dite EUROBIO.
(§3) Le milieu de culture utilisé avait la composition suivante
(§4) L'ensemencement se fait en boîte de 12 cupules contenant chacune 2 ml du milieu. Le produit à tester est mis en solution dans le diméthylsulfoxyde (DMSO) et dilué par du milieu de culture. La solution ainsi obtenue est ajoutée au milieu de culture pour obtenir des concentrations en produit à tester de 5, 10, 20, 30, 40, et […] par ml de milieu. Les cellules sont ajoutées en même temps que la solution du produit à tester.
(§5) Le milieu ensemencé et ainsi traité est mis à l'étuve à 37°C pendant 3 jours. Après fixation des cellules par la méthode dite au cristal violet [selon la technique de R.J. GILLIER et al., "Determination of cell number in monolayer cultures", Analytical Biochemistry 159, pages 109-113, (1986)]. […]

[2] = test system: Leishmania donovani, promastigote; assay: Anti-Leishmania effect in vitro (growth inhibition of promastigotes, cell count); type: cell-based; details: for inhibition (I%): growth inhibition of Leishmania donovani promastigotes; for DI-50: dose of 50 % inhibition, 26°C; for DI-50 / DImax: Leishmania donovani LRC L52 promastigotes, 3 to 4 days; for DImax: dose of maximal measured inhibition
Description: as §1
On fait appel à une souche de Lieshmania donovani LRC L52 (de la collection OMS).
as §3
L'ensemencement se fait dans des boîtes de 24 cupules contenant chacune 500 µl de milieu. Le milieu est ensemencé par 500 000 promastigotes par cupule puis placé dans une étuve à CO₂ à 26°C pendant 3 à 4 heures.
Le produit à tester est ajouté en solution dans le DMSO à des concentrations variables sous un volume de 25 µl par cupule. Les boîtes ensemencées et traitées par le produit sont laissées à l'étuve pendant 3 à 4 jours.
La mesure de l'activité est effectuée par comptage des cellules à l'hémocytomètre, le nombre obtenu étant rapporté à un témoin dépourvu de produit (100 % de cellules, soit 0 % d'inhibition de croissance). Chaque manipulation est effectuée 2 fois.
Les résultats obtenus sont également consignés dans le tableau I ci-après où sont données les doses d'inhibition à 50 % (DI-50) et les doses d'inhibition maximale mesurées (DImax).

cellules KB [3] = assay: Cytostatic effect on KB cells (crystal violet, optical density at 590 nm); type: cell-based, humain; details: 3 days at 37°C, optical density at 590 nm versus control, ***/** = statistical significance
From the text: as §1, §2, §3, §4, §5

SMILES	Cytotoxicité (cellules KB [1])	inhibition (I%) ([2]; DI = 20 µg.ml)	DI-50 [2]	DImax [2]	Cytostase (cellules KB [3])	inhibition (I%) ([2]; DI = 10 µg.ml)
CCCCCCCCCC(O)CC1CCC(C2CCC(C(O)CCCCCCCCCCC(O)CCC3=CC(C)OC3=O)O2)O1 (stereo not shown) [Ex 8, 2-[5-(2-hydroxyundécyl)-2-tétrahydrofurannyl]-5-[14-(5-méthyl-2-oxo-2,5-dihydro-3-furannyl)-1,12-dihydroxytétradécyl]-tétrahydrofuranne]	40 µg·mL	11%	>20 µg·mL	20 µg·mL	20** µg.ml	
CCCCCCCCCC(O)CC1CCC(C2CCC(C(O)CCCC(O)CCCCCCC(O)CCC3=CC(C)OC3=O)O2)O1 (stereo not shown) [Ex 1, 2-[5-(2-hydroxyundécyl)-2-tétrahydrofurannyl]-5-[14-(5-méthyl-2-oxo-2,5-dihydro-3-furannyl)-1,5,12-trihydroxytétradécyl]-tétrahydrofuranne]	40 µg·mL		2,5 µg.ml	10 µg·mL	20*** µg.ml	100%
